This test deals with KPC-3, lysate of EC1007 (Klebsiella pneumoniae, UniProt Q9F663, H272Y). Briefly: Inhibition of biapenem hydrolysis by bacterial lysate.

Results on one compound are retold here after US11090319B2, “Therapeutic uses of pharmaceutical compositions comprising cyclic boronic acid ester derivatives” (Melinta Subsidiary Corp., priority 2010, dated 2021).

Some results are limits rather than exact numbers.

Sequence of KPC-3, lysate of EC1007 (Q9F663 whole entry H272Y, looked up): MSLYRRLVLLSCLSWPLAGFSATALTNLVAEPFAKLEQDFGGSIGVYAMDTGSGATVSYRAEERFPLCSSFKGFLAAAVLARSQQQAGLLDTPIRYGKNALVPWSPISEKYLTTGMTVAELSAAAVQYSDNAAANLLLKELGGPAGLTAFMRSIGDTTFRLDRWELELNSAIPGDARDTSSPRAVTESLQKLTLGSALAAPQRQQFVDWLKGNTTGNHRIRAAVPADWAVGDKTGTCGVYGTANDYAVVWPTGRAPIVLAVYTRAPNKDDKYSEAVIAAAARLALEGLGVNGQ

Broadly, the IC50 is the concentration at which inhibition is half-maximal. Read a low IC50 as greater potency in that assay. For the compound `Cl.N[C@H]1CCC(CC(=O)O)OB1O` (stereo partly drawn) [Compound 7, 2-((3R)-3-amino-2-hydroxy-1,2-oxaborinan-6-yl)acetic acid hydrochloride], the IC50 was above 4.77 µM.
